Tests used:
Flag‐DOPr = test: Agonist‐induced internalization of Flag‐DOPrs in primary cortical neuron cultures; type: cell-based, Murine; settings: 10 µmol/L, 60 min; rat primary cortical neurons transfected with Flag‐DOPr; three independent experiments
Method: Primary neuronal cultures were prepared from rat post‐natal prefrontal cortex (P0‐P2) as previously described. ^19 Briefly, three cultures were independently prepared from 8 to 12 pups each. Pups were cryo‐anaesthetized, and brains were removed and transferred into ice‐cold dissociation solution (NaS0_4 90 mmol/L; K2SO4 30 mmol/L; MgCl2 5.8 mmol/L; CaCl20.25 mmol/L; HEPES 10 mmol/L; glucose 20 mmol/L; pH 7.4). Following dissection, the frontal cortex was digested in papain solution (20 U/mL; 40 minutes at 37°C), and the product passed through Pasteur pipettes of progressively decreasing diameter for mechanical dissociation. The suspension obtained was centrifuged, and cells were then resuspended and diluted to a density of 2.5 million/mL, before plating onto glass coverslips pre‐coated with collagen/poly l‐lysine (each at 0.1 mg/mL). Culture proceeded in supplemented Neurocell medium (B27 4%; 100 U/mL penicillin‐streptomycin; GlutaMAX 2%; FBS 10%) for 24 hours. Coverslips were then transferred to a six‐well plate containing 2 mL of Neurocell medium/well and transfected with Flag‐DOPr (8 µg/well), using a calcium phosphate transfection protocol previously. ^19 Murine DORs tagged with the Flag epitope at the N terminus were a generous gift from Dr M. von Zastrow (University of California at San Francisco, San Francisco, CA).
Immunolabelling of surface receptors for quantification of trafficking was performed as previously described. ^19 Briefly, primary cultures expressing Flag‐DOPrs were incubated at 37°C with Neurocell medium containing Ca^2+‐dependent mouse anti‐Flag M1 antibody (1:100; Sigma). […]
Cytoplasmic and surface labelling densities were quantified with ImageJ using a previously described method, ^27 with small modifications. ^16 In particular, total cytoplasmic labelling density was obtained by measuring fluorescence intensity within the region confined between the external and nuclear perimeters, and dividing this value by the corresponding area. […]

[1] = tested on: rat model of streptozotocin (STZ)‐induced diabetic neuropathy; test: Chronic (homologous) analgesic tolerance over six daily i.t. injections at ED80, with or without ECE2 inhibitor 6634449; type: in vivo; settings: for Anti‐allodynic response over 6‐day treatment: six consecutive i.t. injections at ED80, 24‐hour intervals, daily AUC, seven rats/group
Method: Type I diabetes was induced by systemic injection of streptozotocin (STZ, 65 mg/kg, i.p.) according to a standardized methodology, which allows development of persistent diabetic neuropathy after the first week of treatment. ^20 At the end of the first week, blood was extracted from the tail vein and blood glucose levels were measured with a glucometer (Accu‐Chek Aviva; Roche Diagnostics) prior to evaluation of analgesia on the second week.
Mechanical allodynia is the consequence of maladaptive neuroplasticity following nerve damage. ^24 In a model of diabetic neuropathy as the one used in this study, hyperglycaemia contributes to generate reactive oxygen species which induce microglia activation and inflammatory mediators. ^25 , ^26 These mediators attenuate the activity of Gly/GABA interneurons in superficial layers ^24 , ^27 , ^28 , ^29 and disrupt the inhibitory control that prevents innocuous touch stimuli from producing pain which leads to allodynia. ^30 DOPrs are expressed in these light‐touch mechanoreceptors ^31 and up‐regulated during sensitization, ^32 , ^33 making DOPr agonists elective for relieving this type of pain. Allodynia was evaluated using Von Frey filaments as previously described. ^19 Briefly, rats were accustomed for 15 min on a metal mesh floor under an inverted plastic box (20 × 10 × 10 cm) in a quiet room dedicated to this behavioural test. After habituation, the plantar surface of the right and left hind legs was alternately touched (6‐8 seconds) with von Frey filaments of progressively wider diameter in order to find the threshold of pressure required to produce withdrawal. The mechanical threshold response was obtained by consigning the pressure in grams that would result in withdrawal of the paw in 50% of 10 trials. A normal rat responds to tactile pressures of 12‐15 g whereas neuropathic rats respond to pressures of 4‐6 g. ^24
To evaluate homologous tolerance, each agonist was injected i.t. once daily for six consecutive days, at ED80 derived from dose‐response curves (deltorphin‐IIED80: 0.30 nmol/30 μL; TIPPED80: 0.40 nmol/30 μL; SB235863ED80: 1.7 nmol/30 μL and SNC‐80ED80: 0.55 nmol/30 μL). Immediately after drug administration, mechanical allodynia was measured every 15 minutes until the analgesic response disappeared. […] Prior to starting any pharmacological treatment, the presence of allodynia was confirmed. Treatments and measures were carried out randomly by two different experimenters to ensure blinding to treatment for the person assessing allodynia. In a series of experiments, an inhibitor of endothelin‐converting enzyme 2 (ECE2), 6634449, was administered by i.t injection (3 nmol/30 μL) 20 minutes prior to administration of DOPr ligands from 2 to 7 days. The vehicle (4% DMSO diluted in CSF sterile) was given as control. The dose of 6634449 used in this study was based on results previously published. ^25
Figure 1 Experimental design. One week after STZ administration, repeated treatments with DOPr agonists were started. Before starting chronic treatment with ED80 of deltorphin II, TIPP, SB235863 or SNC‐80, animals were tested to establish the baseline allodynia. Immediately after, they were injected with deltorphin II at a dose corresponding to ED50, which was repeated at the end of treatment. Allodynia measures were taken every 15 min after each injection until analgesic effects disappeared. Chronic tolerance was evaluated by comparing analgesic response to successive i.t. injections of each agonist between days 2 and 6. Difference in analgesic response to deltorphin II ED50 in days 1 and 8 allowed to establish tolerance induced by the different agonists to this common probe

| Compound | Sequestration (intracellular labelling density) (Flag‐DOPr) | Anti‐allodynic response over 6‐day treatment [1] | Analgesic t 1/2 (95% CI), rats pre‐treated with ECE2 inhibitor 6634449 ([1]; 6634449 3 nmol/30 μL (0.1 mmol/L) i.t. 20 min before each daily i.t. agonist injection at ED80, five rats/group) | Tolerance / analgesia with 6634449 pre‐treatment compared with vehicle controls ([1]; 6634449 0.1 mmol/L i.t. 20 min before each agonist injection at ED80, five rats/group) | Day by which analgesic effects were reduced in animals exposed to 6634449 ([1]; 6634449 i.t. 20 min before each daily agonist injection at ED80) [days] | Analgesic t 1/2 (95% CI), rats pre‐treated with vehicle ([1]; vehicle i.t. 20 min before each daily i.t. agonist injection at ED80, five rats/group) |
| --- | --- | --- | --- | --- | --- | --- |
| CCC(C)COC(=O)c1[nH]c2c(c1C)CC1C3Cc4ccc(OC)c5c4C1(CCN3C)C2O5.Cl (stereo not drawn) [SB235863, [8R‐(4bS*,8aα,8aβ,12bβ)]7,10‐dimethyl‐1‐methoxy‐11‐(2‐ethylpropyl)oxycarbonyl 5,6,7,8,12,12b‐hexahydro‐(9H)‐4,8‐methanobenzofuro[3,2‐e]pyrrolo[2,3‐g]isoquinoline hydrochloride] | low‐internalizing | practically abolished |  |  |  |  |
| C=CCN1C[C@H](C)N([C@H](c2ccc(C(=O)N(CC)CC)cc2)c2cccc(OC)c2)C[C@H]1C [SNC‐80, (+)‐4‐[(αR)‐α‐((2S,5R)‐4‐allyl‐2,5‐dimethyl‐1‐piperazinyl)‐3‐methoxybenzyl]‐N,N‐diethylbenzamide] | significantly higher | gradually decreased |  |  |  |  |
| deltorphin II | significantly higher | maintained its analgesic response | ill‐defined | significantly shorter | 4 | no measurable decay t 1/2 |
